Assays:
[1] = Evaluation of solubility in various organic solvents at 25° C.; format: physicochemical; details: concentration giving a stable solution
Description: The case in which dissolution occurred at more than 20 mass % is indicated by 20<while the case of less than 0.5 mass % is indicated by 0.5>.

[2] = Measurement of UV absorption spectra of methanol solutions; format: physicochemical; details: 1×10^−5 mol/liter; for Maximum absorption (nm), first absorption peak / Maximum absorption (nm), second absorption peak: 200 nm to 500 nm; for Maximum absorption (nm), first absorption peak / Absorbance at first absorption peak: (short wavelength); for Maximum absorption (nm), second absorption peak / Absorbance at second absorption peak: long wavelength
Method: Solutions of the compounds listed in Table 2 among the compounds yielded in the above described examples and the comparative compounds 1-3 represented by the formulae described below in methanol with 1×10^−5 mol/liter were prepared to measure the UV absorption spectra of the solutions at 200 nm to 500 nm.

| Solubility in cyclohexanone [1] | Solubility in propylene glycol monomethyl ether acetate [1] | Solubility in γ-butyrolactone [1] | Maximum absorption (nm), first absorption peak [2] | Maximum absorption (nm), second absorption peak [2] | Absorbance at first absorption peak [2] | Absorbance at second absorption peak [2] | Compound |
| --- | --- | --- | --- | --- | --- | --- | --- |
| 1.0 mass % | < 0.5 mass % | 1.9 mass % | 229 nm | 335 nm | 0.513 | 0.117 | Cc1ccc(S(=O)(=O)ON2C(=O)c3cccc4cccc(c34)C2=O)cc1 [compound 3] |
| 7.1 mass % | 1.9 mass % | 4.8 mass % | 226 nm | 336 nm | 0.389 | 0.103 | O=C1c2cccc3cccc(c23)C(=O)N1OS(=O)(=O)C(F)(F)F [Comparative compound 2] |
| 6.1 mass % | 1.1 mass % | 12.6 mass % | 231 nm | 335 nm | 0.413 | 0.133 | CC1(C)C2CCC1(CS(=O)(=O)ON1C(=O)c3cccc4cccc(c34)C1=O)C(=O)C2 (stereo not shown) [compound 1] |

| Compound | Solubility in cyclohexanone [1] | Solubility in propylene glycol monomethyl ether acetate [1] | Solubility in γ-butyrolactone [1] | Maximum absorption (nm), first absorption peak [2] | Maximum absorption (nm), second absorption peak [2] | Absorbance at first absorption peak [2] | Absorbance at second absorption peak [2] |
| --- | --- | --- | --- | --- | --- | --- | --- |
| CCCCSc1ccc2c3c(cccc13)C(=O)N(OS(=O)(=O)CC13CCC(CC1=O)C3(C)C)C2=O (stereo not shown) [Compound S-28] | 14.0 mass % | 2.8 mass % | 17.8 mass % |  |  |  |  |
| CCCCCCCCSc1ccc2c3c(cccc13)C(=O)N(OS(=O)(=O)CC13CCC(CC1=O)C3(C)C)C2=O (stereo not shown) [Compound S-29] | > 20 mass % | 9.0 mass % | 20< mass % | 210 nm | 400 nm | 0.299 | 0.158 |

— patent US8680268B2, “Sulfonic acid derivative compound and novel naphthalic acid derivative compound” (Adeka Corporation, priority 2010, dated 2014)
